Results reported in US12186290B2, “Methods for the treatment of glioblastoma multiforme” (priority 2017, dated 2025).

Experiment: solubility in water
Format: physicochemical

NC(=O)C(CCC(=O)[O-])NC(=O)Cc1ccccc1.[Na+] (stereo not shown) [Iso-PG, phenylacetylisoglutaminate sodium]
solubility in water: soluble in water
